Test systems include EKVX NSCLC; COLO 205 colon; UO-31 renal; UACC-62 melanoma; M14 melanoma; RXF 393 renal; SK-MEL-5 melanoma; MDA-MB-435; TK-10 renal; MOLT-4 leukemia.
What all share (assay): NCI anticancer screen, dose series, 48 h

Values joined by “and” are separate entries in the source; they are usually repeats but may differ in a detail not shown here. Identical values can stand only once.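 1) Cells in 96-well plates. 2) Compound, 48 h, 5 concentrations. 3) Linear interpolation between surrounding doses. 4) Unreached endpoint = highest concentration. At the GI50, growth is halved. TGI marks complete inhibition of growth.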

Regarding `C[C@]12CC[C@H]3[C@@H](CC=C4C[C@@H](N5CCCC5)CC[C@@]43C)[C@@H]1C/C(=C\c1cccc(OCCN3CCOCC3)c1)[C@@H]2O`, the GI50 is 8.02 µM in the assay on EKVX NSCLC; 3.89 µM in the assay on COLO 205 colon; 3.11 µM in the assay with UO-31 renal; 17.6 µM in the assay on UACC-62 melanoma; 1.96 µM with M14 melanoma; 1.76 µM in the assay on RXF 393 renal. Moreover, the GI50 with SK-MEL-5 melanoma is 2.88 µM; in the assay on MDA-MB-435 it was 3.64 µM; in the assay with TK-10 renal it was 4.15 µM. Also, the TGI in the assay with EKVX NSCLC is greater than 100 µM; in the assay on COLO 205 colon, 39.3 µM; in the assay with UO-31 renal, 9.97 µM; with UACC-62 melanoma, 33.2 µM; in the assay with M14 melanoma, 4.07 µM; in the assay on RXF 393 renal, 3.82 µM. Further, the results for the TGI in the assay with SK-MEL-5 melanoma, in the assay with MDA-MB-435 and in the assay on TK-10 renal were 10.6 µM, greater than 100 µM and 46.7 µM, respectively.

In the case of `CC1C(C)N(C(=O)CCl)c2ccccc2N1C(=O)CCl` (configuration not stated), the GI50 was 0.941 µM in the assay with EKVX NSCLC; 0.399 µM with COLO 205 colon; 0.168 µM with UO-31 renal; 0.624 µM in the assay on UACC-62 melanoma; 0.243 µM in the assay with MOLT-4 leukemia; 0.597 µM with M14 melanoma. The GI50 was 0.266 µM in the assay on RXF 393 renal, 1.27 µM in the assay with SK-MEL-5 melanoma, 0.276 µM in the assay on MDA-MB-435 and 0.78 µM in the assay on TK-10 renal. The TGI turned out to be 2.42 µM with EKVX NSCLC; 0.973 µM in the assay with COLO 205 colon; 0.346 µM with UO-31 renal; 2.1 µM in the assay on UACC-62 melanoma; 0.81 µM in the assay on MOLT-4 leukemia; 2.2 µM in the assay with M14 melanoma. The TGI with RXF 393 renal came to 0.961 µM; in the assay with SK-MEL-5 melanoma it was 2.85 µM; in the assay on MDA-MB-435, 0.939 µM; in the assay on TK-10 renal it was 2.04 µM.

With `CC1=C2[C@@H](CC1)[C@]1(C)O[C@@](C(C)C)(C[C@H]1OC(=O)CO)[C@H]2OC(=O)C1CC1c1ccccc1` (some centres not stated), the GI50 is 8.21 µM in the assay on EKVX NSCLC; 16.1 µM in the assay on COLO 205 colon; 9.49 µM in the assay on UO-31 renal; 10.9 µM in the assay with UACC-62 melanoma; 9.73 µM in the assay with MOLT-4 leukemia; 12.8 µM in the assay on M14 melanoma. Besides, the GI50 in the assay with RXF 393 renal is 0.405 µM; in the assay with SK-MEL-5 melanoma, 15.2 µM; with MDA-MB-435, 14.1 µM; with TK-10 renal, 16.6 µM. Further, the TGI was 22.7 µM in the assay with EKVX NSCLC; 33 µM in the assay with COLO 205 colon; 25.1 µM in the assay on UO-31 renal; 25.6 µM in the assay on UACC-62 melanoma; 28.8 µM in the assay with MOLT-4 leukemia; 29.3 µM in the assay on M14 melanoma. The TGI in the assay with RXF 393 renal came to 17.4 µM; with SK-MEL-5 melanoma, 28.8 µM; with MDA-MB-435 it was 27.3 µM; in the assay on TK-10 renal, 31.6 µM.

For the compound `COc1ccc(-c2nc(-c3ccc(C)cc3)cn3ccnc23)cc1`, the GI50 in the assay on EKVX NSCLC was 4.38 µM; with COLO 205 colon, 2.87 µM; in the assay on UO-31 renal, 12 µM; in the assay on UACC-62 melanoma it was 4.39 µM; in the assay on MOLT-4 leukemia, 22.3 µM; with M14 melanoma, 3.23 µM. Also, the GI50 in the assay with RXF 393 renal was 2.41 µM; with SK-MEL-5 melanoma, 1.68 µM; in the assay with MDA-MB-435, 1.76 µM; in the assay with TK-10 renal, 20.6 µM. For the same compound, the TGI in the assay on EKVX NSCLC, with COLO 205 colon, in the assay with UO-31 renal, with UACC-62 melanoma, in the assay on MOLT-4 leukemia and with M14 melanoma was greater than 50 µM in each case. Further, the TGI is 18.5 µM with RXF 393 renal, 5.2 µM in the assay with SK-MEL-5 melanoma, greater than 50 µM in the assay with MDA-MB-435 and greater than 50 µM in the assay on TK-10 renal.

On to `Nc1nc([Se])c2ncn(C3OC(CO)C(O)C3O)c2n1` (configuration not stated), for which the GI50 in the assay on EKVX NSCLC is 37.6 µM; with COLO 205 colon it was 19.3 µM; in the assay with UO-31 renal, 24.3 µM; in the assay on UACC-62 melanoma, 4.16 µM; in the assay on MOLT-4 leukemia, 3.4 µM; in the assay on M14 melanoma it was 4.28 µM. The GI50 was greater than 100 µM in the assay with RXF 393 renal, 25.2 µM with SK-MEL-5 melanoma, 15.1 µM with MDA-MB-435 and 7.55 µM in the assay on TK-10 renal. The TGI is greater than 100 µM with EKVX NSCLC; 72.5 µM in the assay with COLO 205 colon; greater than 100 µM in the assay on UO-31 renal; greater than 100 µM in the assay on UACC-62 melanoma; greater than 100 µM in the assay on MOLT-4 leukemia; greater than 100 µM with M14 melanoma. The TGI in the assay on RXF 393 renal was greater than 100 µM; with SK-MEL-5 melanoma, 89.6 µM; with MDA-MB-435 it was greater than 100 µM; in the assay with TK-10 renal, greater than 100 µM.

Take `C=C/C=C/[C@@H](O)CC(=C)C[C@H]1OC2[C@H](C)[C@@H](OC(=O)C[C@H]3C[C@H](OC(C)=O)C[C@@]4(C[C@@](C)(O)C[C@H](CC(=C)[C@@H](C)[C@H](OC(C)=O)[C@H](C)C(=O)C[C@@H]5C[C@H](OC)CC6(C[C@@H](O)C[C@H](/C=C\CCC[C@H]7O[C@](O)(C=C[C@H]7C)[C@H]2O)O6)O5)O4)O3)[C@@H]1O`: the TGI in the assay on EKVX NSCLC was greater than 25 µM; with COLO 205 colon, less than 0.0025 µM; in the assay on UO-31 renal, greater than 10.9 µM; with M14 melanoma it was 0.00709 µM; in the assay on RXF 393 renal it was 0.0542 µM; with SK-MEL-5 melanoma, 0.00571 µM and 0.00327 µM. In the assay on MDA-MB-435, this compound registered a TGI of less than 0.0025 µM. In addition, the GI50 in the assay on COLO 205 colon was 0.000359 µM and < 0.0025 µM; in the assay with RXF 393 renal, 0.0025 µM; with SK-MEL-5 melanoma it was 0.000327 µM and 0.0025 µM; with MDA-MB-435, less than 0.0025 µM; in the assay with TK-10 renal, 0.00162 µM and 0.0025 µM.

In the case of `NCCCC[C@@H]1NC(=O)[C@H](CC(=O)O)NC(=O)CNC(=O)[C@H](CCCN=C(N)N)NC(=O)[C@@H](N)CSSC[C@@H](C(=O)O)NC(=O)[C@H](CC(=O)O)NC(=O)[C@@H]2CCCN2C(=O)CNC1=O`, the GI50 in the assay with EKVX NSCLC, with COLO 205 colon, with UACC-62 melanoma, with MOLT-4 leukemia, in the assay on M14 melanoma and in the assay with RXF 393 renal was greater than 100 µM each time. The GI50 with SK-MEL-5 melanoma, with MDA-MB-435 and in the assay on TK-10 renal was greater than 100 µM in each case. Further, the TGI in the assay with EKVX NSCLC, in the assay on COLO 205 colon, in the assay with UACC-62 melanoma, in the assay on MOLT-4 leukemia, with M14 melanoma and in the assay with RXF 393 renal was greater than 100 µM throughout. Further, the TGI in the assay on SK-MEL-5 melanoma, in the assay on MDA-MB-435 and in the assay on TK-10 renal was greater than 100 µM each time.

`CN(C)c1ccc2oc(=O)c3ccccc3c2c1`: the TGI in the assay with EKVX NSCLC was greater than 100 µM; with COLO 205 colon, greater than 100 µM; with UACC-62 melanoma, greater than 100 µM; with MOLT-4 leukemia it was greater than 100 µM; in the assay on M14 melanoma it was greater than 100 µM; in the assay on RXF 393 renal, 78.9 µM. Moreover, the TGI in the assay with SK-MEL-5 melanoma, in the assay on MDA-MB-435 and in the assay on TK-10 renal was greater than 100 µM in each case.
